For orientation: pEC50 means the negative decadic logarithm of the EC50, by convention in mol/L.

pEC50: −log10 of the molar value. Some results are limits rather than exact numbers.

This note sets out measurements from patent publication US20250228835A1, “PYRIDINYLOXYPYRIDINES AND RELATED COMPOUNDS AND THEIR USE IN TREATING MEDICAL CONDITIONS” (Rectify Pharmaceuticals, Inc., priority 2024, published 2025).

For experiment [1], the target named is T1, ABCA4 P1380L (Homo sapiens, UniProt P78363, P1380L).
T1 construct: expressed in transfected cells
T1 sequence (P78363 whole entry P1380L): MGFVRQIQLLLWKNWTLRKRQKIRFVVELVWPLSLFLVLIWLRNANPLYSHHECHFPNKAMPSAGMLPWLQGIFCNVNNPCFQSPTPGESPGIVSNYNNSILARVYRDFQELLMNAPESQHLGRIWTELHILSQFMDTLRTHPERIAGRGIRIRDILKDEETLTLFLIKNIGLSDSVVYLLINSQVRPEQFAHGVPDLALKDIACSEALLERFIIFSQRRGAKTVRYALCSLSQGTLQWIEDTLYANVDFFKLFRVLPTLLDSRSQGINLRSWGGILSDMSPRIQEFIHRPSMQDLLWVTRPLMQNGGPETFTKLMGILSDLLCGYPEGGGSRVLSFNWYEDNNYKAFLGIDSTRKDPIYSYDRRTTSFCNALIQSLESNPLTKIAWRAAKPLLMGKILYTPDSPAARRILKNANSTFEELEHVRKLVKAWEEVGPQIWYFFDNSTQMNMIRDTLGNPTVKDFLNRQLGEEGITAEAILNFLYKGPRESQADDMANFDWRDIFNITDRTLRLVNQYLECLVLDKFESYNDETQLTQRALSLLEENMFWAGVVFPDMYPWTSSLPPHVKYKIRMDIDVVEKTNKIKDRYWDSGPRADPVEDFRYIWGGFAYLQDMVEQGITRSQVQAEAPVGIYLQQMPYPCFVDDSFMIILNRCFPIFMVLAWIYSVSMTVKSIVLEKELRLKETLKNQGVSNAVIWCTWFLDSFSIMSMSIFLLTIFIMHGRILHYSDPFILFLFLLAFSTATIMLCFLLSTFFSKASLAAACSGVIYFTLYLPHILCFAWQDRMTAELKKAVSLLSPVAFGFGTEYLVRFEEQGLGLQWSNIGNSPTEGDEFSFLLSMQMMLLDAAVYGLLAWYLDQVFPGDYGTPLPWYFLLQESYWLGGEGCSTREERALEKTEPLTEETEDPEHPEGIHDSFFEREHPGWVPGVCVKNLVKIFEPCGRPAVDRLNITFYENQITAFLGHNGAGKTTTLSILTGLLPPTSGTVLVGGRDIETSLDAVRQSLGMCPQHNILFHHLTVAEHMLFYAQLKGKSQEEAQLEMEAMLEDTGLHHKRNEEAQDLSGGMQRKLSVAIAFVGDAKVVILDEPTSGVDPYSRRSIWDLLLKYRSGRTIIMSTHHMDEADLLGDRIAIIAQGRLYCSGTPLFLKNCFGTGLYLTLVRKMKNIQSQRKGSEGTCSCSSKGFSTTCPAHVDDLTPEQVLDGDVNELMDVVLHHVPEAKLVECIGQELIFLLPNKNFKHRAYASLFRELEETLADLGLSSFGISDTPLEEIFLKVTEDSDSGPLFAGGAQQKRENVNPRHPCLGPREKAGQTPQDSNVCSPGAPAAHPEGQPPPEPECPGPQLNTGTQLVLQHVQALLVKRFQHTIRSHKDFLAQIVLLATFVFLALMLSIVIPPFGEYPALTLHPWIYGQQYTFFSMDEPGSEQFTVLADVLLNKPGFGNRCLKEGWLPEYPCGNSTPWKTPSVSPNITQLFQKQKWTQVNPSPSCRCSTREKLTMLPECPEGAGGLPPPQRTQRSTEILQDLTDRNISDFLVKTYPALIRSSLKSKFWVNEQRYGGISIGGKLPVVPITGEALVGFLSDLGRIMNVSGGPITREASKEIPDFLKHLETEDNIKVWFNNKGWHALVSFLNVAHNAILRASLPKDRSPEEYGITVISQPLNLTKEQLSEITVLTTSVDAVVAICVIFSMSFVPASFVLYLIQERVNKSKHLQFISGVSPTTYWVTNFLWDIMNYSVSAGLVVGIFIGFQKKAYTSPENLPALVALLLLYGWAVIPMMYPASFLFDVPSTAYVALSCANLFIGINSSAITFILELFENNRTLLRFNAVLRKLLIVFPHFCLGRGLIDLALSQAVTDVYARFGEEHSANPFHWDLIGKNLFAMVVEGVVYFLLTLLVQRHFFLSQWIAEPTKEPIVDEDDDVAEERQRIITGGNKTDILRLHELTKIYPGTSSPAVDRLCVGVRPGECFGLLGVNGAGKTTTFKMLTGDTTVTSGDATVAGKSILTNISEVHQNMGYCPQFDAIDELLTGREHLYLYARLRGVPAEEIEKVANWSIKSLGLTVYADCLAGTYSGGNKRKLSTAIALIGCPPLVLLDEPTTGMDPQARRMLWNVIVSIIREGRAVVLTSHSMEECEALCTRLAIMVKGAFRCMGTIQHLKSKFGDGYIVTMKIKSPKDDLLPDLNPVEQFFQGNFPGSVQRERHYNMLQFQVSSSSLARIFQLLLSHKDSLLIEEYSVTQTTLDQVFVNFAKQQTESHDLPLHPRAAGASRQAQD
Briefly: A4 correction dose-response assay: ABCA4 P1380L HiBit protein expression. The format is cell-based. Conditions: HEK-293 cells stably expressing HiBit-tagged ABCA4 P1380L; 24 h treatment; top concentration 30 μM; read-out: ABCA4 P1380L EC50, Emax. Summed up: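 Cells transfected with HiBit-tagged human ABCA4 P1380L cDNA were treated for 24 h at 37°C with an eleven-point dilution series (top final 30 μM, 0.3% DMSO).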
A general note: HiBiT is a short tag that completes a luciferase, so light tracks the accessible tagged protein.

Experiment [2] concerns the target T2, ABCC6 WT (Homo sapiens, UniProt O95255).
T2 construct: expressed in transfected cells; host or cells: HEK-293 (transient, Lipofectamine 2000)
Briefly: ABCC6 WT assay: HiBit protein expression. Particulars: HEK-293 cells transiently expressing HiBit-tagged ABCC6 WT; 24 h treatment; top concentration 20 μM; read-out: ABCC6 WT EC50, Emax. It is filed as cell-based. Summed up: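 HEK-293 cells transiently transfected with HiBit-tagged human ABCC6 WT cDNA, seeded 24 h post-transfection, treated 24 h at 37° C with ten 2-fold doses (top 20 μM final, 0.15% DMSO). HiBit lytic luminescence reports protein expression; Emax and EC50 derived.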

T2 sequence (O95255 whole entry): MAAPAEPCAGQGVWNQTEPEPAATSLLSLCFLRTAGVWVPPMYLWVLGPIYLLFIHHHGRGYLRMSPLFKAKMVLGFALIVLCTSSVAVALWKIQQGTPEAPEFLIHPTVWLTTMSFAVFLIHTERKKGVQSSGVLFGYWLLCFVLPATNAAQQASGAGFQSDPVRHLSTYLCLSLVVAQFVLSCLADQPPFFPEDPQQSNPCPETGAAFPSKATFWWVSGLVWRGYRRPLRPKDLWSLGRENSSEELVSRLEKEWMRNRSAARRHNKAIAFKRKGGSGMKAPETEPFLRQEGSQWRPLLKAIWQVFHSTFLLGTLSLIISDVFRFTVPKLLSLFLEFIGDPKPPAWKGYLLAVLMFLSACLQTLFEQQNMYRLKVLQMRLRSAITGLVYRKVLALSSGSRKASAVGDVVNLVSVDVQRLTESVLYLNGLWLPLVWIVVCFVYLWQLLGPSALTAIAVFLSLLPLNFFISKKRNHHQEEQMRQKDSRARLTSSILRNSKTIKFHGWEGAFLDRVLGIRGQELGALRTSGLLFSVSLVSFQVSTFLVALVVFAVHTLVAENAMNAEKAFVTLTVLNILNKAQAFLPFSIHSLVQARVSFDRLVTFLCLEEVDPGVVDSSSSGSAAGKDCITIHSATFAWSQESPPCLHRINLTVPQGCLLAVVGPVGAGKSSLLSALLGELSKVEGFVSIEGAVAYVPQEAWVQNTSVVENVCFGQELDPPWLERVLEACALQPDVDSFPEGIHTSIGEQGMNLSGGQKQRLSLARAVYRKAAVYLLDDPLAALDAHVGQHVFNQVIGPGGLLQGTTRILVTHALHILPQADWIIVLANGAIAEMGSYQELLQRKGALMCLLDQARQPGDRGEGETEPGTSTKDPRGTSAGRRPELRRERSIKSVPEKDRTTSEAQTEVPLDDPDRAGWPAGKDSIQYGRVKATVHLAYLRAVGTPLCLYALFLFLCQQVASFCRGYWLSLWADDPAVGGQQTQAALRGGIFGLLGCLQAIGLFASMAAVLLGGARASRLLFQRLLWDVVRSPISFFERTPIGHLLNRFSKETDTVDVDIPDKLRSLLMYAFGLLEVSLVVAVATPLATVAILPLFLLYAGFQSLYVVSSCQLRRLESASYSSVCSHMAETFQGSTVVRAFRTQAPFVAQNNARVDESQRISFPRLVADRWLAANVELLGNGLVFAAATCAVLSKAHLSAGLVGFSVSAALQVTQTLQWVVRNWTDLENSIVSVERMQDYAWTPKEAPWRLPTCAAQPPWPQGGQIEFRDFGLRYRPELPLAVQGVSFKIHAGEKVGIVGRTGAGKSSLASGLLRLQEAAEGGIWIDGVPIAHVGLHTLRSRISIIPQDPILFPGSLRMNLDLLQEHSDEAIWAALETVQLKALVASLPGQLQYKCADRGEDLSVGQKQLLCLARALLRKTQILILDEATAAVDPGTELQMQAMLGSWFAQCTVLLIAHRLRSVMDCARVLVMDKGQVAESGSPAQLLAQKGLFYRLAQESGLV

Turning to `Cc1cc(C(F)F)nc(C)c1Oc1nc(-c2cncc(C#N)c2)ccc1NS(C)(=O)=O` [Compound I-230], the negative-log EC50 (pEC50) in experiment [1] and in experiment [2] was more than 6.00 each time.

For the compound `COCc1cncc(-c2ccc(NS(C)(=O)=O)c(Oc3c(C)cc(C)nc3C)n2)c1` [Compound I-231], the pEC50 in experiment [1] was 5.00 to 6.00; in experiment [2], more than 6.00.

Regarding `Cc1cc(C)c(Oc2nc(-c3cncc(C4CC4)c3)ccc2NS(C)(=O)=O)c(C)n1` [Compound I-232], the pEC50 in experiment [1] is more than 4.60; in experiment [2] it was more than 6.00.

For `Cc1nc(C)c(Oc2nc(-c3cncc(C#N)c3)ccc2NS(C)(=O)=O)c(C)n1` [Compound I-234], the negative-log EC50 (pEC50) in experiment [1] and in experiment [2] was more than 6.00 in each case.

For `Cc1cc(C2CC2)nc(C)c1Oc1nc(-c2cncc(C#N)c2)ccc1NS(=O)(=O)C1COC1` [Compound I-235], the pEC50 in experiment [1] was more than 4.60; in experiment [2], more than 6.00.

For the compound `Cc1cc(C2CC2)nc(C)c1Oc1nc(-c2cncc(Cl)c2)ccc1NS(=O)(=O)C1COC1` [Compound I-236], the negative-log EC50 (pEC50) in experiment [1] was more than 4.60; in experiment [2], more than 6.00.

`Cc1cc(C)c(Oc2nc(-c3cncc(Cl)c3)ccc2NS(=O)(=O)C2COC2)c(C)n1` [Compound I-237]: the pEC50 in experiment [1] and in experiment [2] was more than 6.00 in each case.
